Experiments:
S.aureus ATCC 6538 = experiment: Antibacterial activity of impregnated films, modified ISO 22196 with illumination (Beispiele 11-16, 25); format: cell-based
Text: Die Bestimmung der antimikrobiellen Aktivität erfolgte nach einer modifizierten Version der ISO 22196:2011-08 ("Messung von antibakterieller Aktivität auf Kunststoff- und anderen porenfreien Oberflächen", Ausgabedatum: 2011-08).
Bei der Testdurchführung wurde ein dünner Flüssigkeitsfilm, in dem die Bakterien enthalten sind (1,25 x 10^4 /cm^2), direkt auf die Probenkörper (3 x 3 cm) aufgebracht. Direkt nach Beimpfung wurden von der Nullprobe die Bakterien von den Probenkörperoberflächen mittels Ultraschall und Vortexen abgelöst und die Keimzahl (KBE (engl. CFU), Kolonie-bildende Einheit) bestimmt (t0-Wert).
Nach 4h wurden überlebende Bakterien von den Probenkörperoberflächen mittels Ultraschall und Vortexen abgelöst und die Keimzahl bestimmt (t4-Wert).
Im Unterschied zu der in der ISO 22196:2011-08 beschreibenen Methode wurde das Inokulum nicht mit einer Folie abgedeckt und die Inkubationszeit wurde von 24 auf 4 Stunden reduziert. Weiterhin wurden die Probenkörper der Proben 3 und 4 mit Licht der Intensität 20mW/cm2 für 10min belichtet, um eine biozide Wirkung nach Bestrahlung mit elektromagnetischer Strahlung zu bestimmen.
Verwendet wurden TPU Folienstücke, die nach dem in Beispiel 4 beschriebenen Verfahren mit Rezeptur 1 behandelt wurden. Rezeptur 1 wurde hergestellt nach Beispiel 2. […] Der Test wurde in Anlehnung an ISO 22196 nach oben beschriebener Methode durchgeführt.
TPU-Folienstücke wurden ebenfalls nach dem in Beispiel 4 beschriebenen Verfahren mit verschiedenen Rezepturen behandelt, die gemäß Beispiel 2 hergestellt wurden. Die Farbstoffkonzentration in der Imprägnierlösung betrug jeweils 1 mM F-24b. Der Test wurde in Anlehnung an ISO 22196 nach oben beschriebener Methode durchgeführt.
Die Farbstoffkonzentration in der Imprägnierlösung betrug jeweils 1 mM.
Die Photokatalysator-Konzentration von F-24b wurde variiert.
Es wurde ein Bakterientest in Anlehnung an ISO 22196 nach oben beschriebener Methode durchgeführt.

[1] = Incorporation of photocatalysts into TPU films versus process time, absorption spectroscopy against blank film (Beispiele 7a-9b); format: physicochemical; details: TPU Folie, Rezeptur 1; Beispiel 7b, Tabelle 41
Procedure: Im nächsten Schritt wurde die Verwendbarkeit der verschiedene Photokatalysatorklassen, ausgewählt aus Phenalen-1-on-Derivaten, Curcumin-Derivaten und Porphycen-Derivaten, mit unterschiedlichen Eigenschaften - von neutral unpolar bis ionisch polar - auf Ihre Verwendbarkeit und Wirkung im Verfahren untersucht.
Zur Beurteilung der optimalen Prozesszeit bei Einsatz der Photokatalysatoren, wurden TPU Folienstücke nach Beschreibung in Beispiel 4 zu je 1, 2, 5 und 10 min in den Imprägnierlösungen behandelt, gegebenenfalls auch 30 und 60 min bei undeutlichen Ergebnissen.
Als Basisformulierung wurde Rezeptur 1 nach Beispiel 2 verwendet.
Nach der angegebenen Prozesszeit wurden die Folie entnommen, mit Wasser gewaschen und für 1h bei 40°C getrocknet/abgelüftet.
Die Folien wurden durch Absorptionsspektroskopie gegen ein Blank-Folienstück direkt vermessen, beim Maximum der Absorption des Photokatalysators. Dabei ergaben sich in Abhängigkeit der Prozesszeit folgende Werte, die in den Tabellen 40 bis

[2] = Comparative examples 23-25: impregnation of unsuitable plastics or with a fluorescent dye, visual evaluation; format: physicochemical; details: 0,2 mm starke Polycarbonatfolien; 60 min Einwirkzeit
Procedure: Die Farbstoffkonzentration in der Imprägnierlösung betrug jeweils 1 mM bei Phenalen-1-on- und Curcuminderivaten, 0,1 mM bei Prophycenderivaten.
Es wurden 0,2 mm starke Polycarbonatfolien eingesetzt und mit Imprägnierlösungen enthaltend die Photokatalysatoren F-24b, F-64a oder F-73 behandelt.
Es wurden TPU Folien eingesetzt und mit einer Imprägnierlösung enthaltend den Farbstoff 2-Chloro-6-(3-hydroxypropylamino)-1-phenalenon (CAS 113722-81-9) behandelt.

[3] = Washability test C following DIN EN ISO 11998, 200 sponge cycles with disinfectant solution (Beispiel 10 C); format: physicochemical; details: TPU, Rezeptur 1 nach Beispiel 2
Procedure: Der Test wurde in Anlehnung an die DIN EN ISO 11998:2006-10 ("Beschichtungsstoffe - Bestimmung der Nassabriebbeständigkeit und der Reinigungsfähigkeit von Beschichtungen (ISO 11998:2006)"; Ausgabedatum: 2006-10) durchgeführt, um das Auswaschen der verschiedenen Farbstoffe in den Kunststofffolien nach mechanischer Belastung zu beurteilen.
Hierzu wurden 200 Zyklen mit einem Anpressdruck von 135g angewendet. Es wurde ein Schwamm mit 4,0 mL Probelösung vorbereitet, die zu testende Folie eingespannt und der Schwamm aufgebracht. 200 Zyklen entsprachen dabei circa 5 min Kontaktzeit des Schwamms und der Oberfläche. Nach dem Test wurde die Folie entnommen und im UV-VIS Spektrometer vermessen, um die ausgewaschene Menge an Farbstoff zu bestimmen.
Der jeweils gemessene Wert vor dem Test und nach Abschluss der 200 Zyklen wurde verglichen und daraus ein prozentualer Verlust ermittelt.
Vorbereitet wurde die Folie nach Beispiel 2. Die zu verwendete Probelösung entsprach 5 Gew.-% Incidin Plus Lösung, bezogen auf das Gesamtgewicht der Probelösung.
Incidin Pro, der Firma ECOLAB Deutschland GmbH (Monheim), ist ein flüssiges Konzentrat, das sich zur Reinigung und Desinfektion medizinischer Geräte und Flächen in Einrichtungen des Gesundheitswesens angewendet wird.
Der Test ermittelt somit den nach wiederholtem flächigem Abwischen mit einem Desinfektionsmittel aus einer behandelten Oberfläche ausgetragenen Photokatalysator.

[4] = Two-component system (kit of parts): impregnation of TPU films, visual colouring and resistance to rubbing/washing (Beispiel 6a/6b); format: physicochemical; details: TPU Folien; 2K-System Beispiel 6a (Aceton/Isopropanol)
Text: Um eine Mehrkomponenten-System bereitzustellen, bei dem vorzugsweise flüchtigere Hilfskomponenten, die gegebenenfalls regelmäßiger im Prozess ergänzt werden müssen, in einer separaten Komponente bereitgestellt werden können, wurde zunächst folgendes 2K-System getestet.
Grundkomponente (A): Eine Mischung aus 40,0% w/w Aceton, 30,0% w/w Isopropanol und […] w/w Wasser wurden homogen vermengt. Die Mischung war dicht verschlossen > 12 Monate bei Raumtemperatur lagerbar.
Zusatzkomponente (B): Eine Mischung aus 3,0% w/w Phenoxyethanol, 3,0% w/w EDTA und 0,1 bis 2,0 % Photokatalysator in Wasser wurden homogen verrührt. Die Mischung war dicht verschlossen in dunklen Flaschen > 6 Monate bei Raumtemperatur lagerbar.
Beide Lösungen wurden vor dem Prozess zu gleichen Teilen gemischt, gefolgt von einer 1:5 Verdünnung mit Wasser. Nach guter Durchmischung war die Lösung gebrauchsfertig.
Bei F-64a und F-73 war eine schwache Gelb- bzw.
Grundkomponente (A) enthielt eine Mischung aus 30,0% w/w Dimethylsuccinat, 33,0% w/w 1,2-Propandiol, 12,0% w/w Tween 20 und 25,0 % Wasser.
Zusatzkomponente (B) enthielt eine Mischung aus 2,0 Gew.-% Phenoxyethanol, 2,0 Gew.-% EDTA und 0,1 Gew.-% bis 1,6 Gew.-% Photokatalysator, jeweils bezogen auf das Gesamtgewicht der Zusatzkomponente (B), wobei die entsprechenden Bestandteile in Wasser gelöst wurden und anschließend homogen verrührt wurden.
Die Komponenten wurden vor Gebrauch im Verhältnis A zu B 2:1 gemischt, gefolgt von einer 1:1 Verdünnung mit Wasser. Nach guter Durchmischung war die Lösung gebrauchsfertig.

Compound: CC(C)(O)c1cc[n+](CC2=Cc3cccc4cccc(c34)C2=O)cc1 [F-24b]
- Log10 Reduktion Hauptprobe (S.aureus ATCC 6538; Beispiel 13, TPU film, Rezeptur 1 nach Beispiel 2, 1 mM in impregnation solution, light 20mW/cm2 10min): 4,0 ± 0,3 log10
- Log10 Reduktion Hauptprobe (S.aureus ATCC 6538; Beispiel 13, TPU film, Rezeptur 2 nach Beispiel 2, 1 mM in impregnation solution, light 20mW/cm2 10min): 1,8 ± 1,3 log10
- Log10 Reduktion Hauptprobe (S.aureus ATCC 6538; Beispiel 13, TPU film, Rezeptur 3 nach Beispiel 2, 1 mM in impregnation solution, light 20mW/cm2 10min): 4,2 ± 0,8 log10
- Log10 Reduktion Hauptprobe (S.aureus ATCC 6538; Beispiel 13, TPU film, Rezeptur 8 nach Beispiel 3, 1 mM in impregnation solution, light 20mW/cm2 10min): 3,5 ± 0,5 log10
- Log10 Reduktion Hauptprobe (S.aureus ATCC 6538; Beispiel 15, TPU film, Rezeptur 1, photocatalyst concentration 0,5 mM): 2,5 ± 1,4 log10
- Log10 Reduktion Hauptprobe (S.aureus ATCC 6538; Beispiel 15, TPU film, Rezeptur 1, photocatalyst concentration 0,25 mM): 2,8 ± 1,3 log10
- Log10 Reduktion Hauptprobe (S.aureus ATCC 6538; Beispiel 15, TPU film, Rezeptur 1, photocatalyst concentration 1 mM): 3,5 ± 0,5 log10
- Log10 Reduktion Hauptprobe (S.aureus ATCC 6538; Beispiel 16, film material CPI (Polyimid), Rezeptur 1, 1 mM): 3,0 ± 0,1 log10
- Log10 Reduktion Hauptprobe (S.aureus ATCC 6538; Beispiel 16, film material Nitril, Rezeptur 1, 1 mM): 3,8 ± 0,3 log10
- Log10 Reduktion Hauptprobe (S.aureus ATCC 6538; Beispiel 16, film material PET-G, Rezeptur 1, 1 mM): 4,0 ± 0,1 log10
- Log10 Reduktion Hauptprobe (S.aureus ATCC 6538; Beispiel 16, film material PVC, Rezeptur 1, 1 mM): 3,9 ± 0,8 log10
- Log10 Reduktion Hauptprobe (S.aureus ATCC 6538; Beispiel 16, film material Silikon, Rezeptur 1, 1 mM): 3,4 ± 0,1 log10
- Log10 Reduktion Hauptprobe (S.aureus ATCC 6538; Beispiel 16, film material Surlyn, Rezeptur 1, 1 mM): 3,6 ± 0,5 log10
- Log10 Reduktion Hauptprobe (S.aureus ATCC 6538; Beispiel 16, film material TPU, Rezeptur 1, 1 mM): 4,0 ± 0,3 log10
- Log10 Reduktion Hauptprobe (S.aureus ATCC 6538; TPU Folie, Rezeptur 1, 1 mM F-24b, Licht 20mW/cm2 für 10min, Gram-positiv): 4,0 ± 0,3 log10
- Abs. 1 min [1]: 0,185
- Abs. 2 min [1]: 0,198
- Abs. 5 min [1]: 0,257
- Abs. 10 min [1]: 0,456
- Verfärbung [2]: keine Verfärbung
- Abs. vor Auswaschen ([3]; Washability test C (DIN EN ISO 11998), film before test): 0,121
- Berechneter Verlust in % ([3]; Washability test C, 200 sponge cycles, 5 Gew.-% Incidin Plus Lösung): 1,7%
- Abs. nach Auswaschen ([3]; Washability test C, film after 200 sponge cycles, 135g, 5 Gew.-% Incidin Plus Lösung): 0,119
- Imprägnierung / Färbung der Folie [4]: mit den vorherigen Daten vergleichbar

From patent publication EP4458804A1, “METHOD FOR PRODUCING AN OBJECT, PHENALEN-1-ONE COMPOUND AND USE THEREOF” (TriOptoTec GmbH, priority 2023, dated 2024)
